Test system: Schwann cells
Assay: Gene expression (microarray) in cultured Schwann cells
Format: cell-based, Human
Protocol: n=8×25 cm^2 culture flasks were set up. Two flasks were harvested on the day of treatment (24 hours after seeding). This represents the Day0 time point. From the remaining flasks, three flasks were treated with Control Medium and three were treated with Culture Medium (CM) containing dextran sulfate to give a final concentration of 0.01 mg/ml. Cells from the treated flasks were collected after 48 hours. Therefore the collected data represent (a) untreated cells (Day0 Controls and Day2 Controls) and (b) cells treated with dextran sulfate for 48 hours (Day2 dextran sulfate treated).
25 cm^2 flasks were coated by adding 2 ml per flask of a solution of 50 μg/ml poly-d-lysine in Hank's balanced salt solution (HBSS) and incubating overnight at 37° C. in the dark. Flasks were washed with cell culture water and air-dried for 30 min in the dark. Flasks were coated by adding 1 ml per flask of a solution of 25 μg/ml laminin in phosphate-buffered saline (PBS) and incubating for 2 hour at 37° C. in the dark. The laminin flasks were washed with PBS three times before plating cells.
Schwann cells growth medium was prepared by adding 10% of fetal bovine serum (FBS) to high-glucose DMEM and pre-warmed to 37° C. Cells were thawed in a 37° C. water bath for no longer than 2 min.
Cells from 12 vials were each gently transferred to a tube containing 10 ml of high-glucose DMEM medium and centrifuged at 400 relative centrifugal field (RCF) for 10 min. Pellet was resuspended in culture medium. The cells from the 12 vials were mixed and distributed equally into the previously coated 25 cm^2 flasks (n=8). Cells were incubated at 37° C. with 5% CO2. Cells were allowed to settle for 24 hours before dextran sulfate treatment.
Dextran sulfate (Tikomed AB, Sweden, WO 2016/076780) was provided at a stock concentration of 20 mg/ml and was kept in a temperature monitored refrigerator at 4° C. A fresh 100× dextran sulfate stock (1.0 mg/ml) was prepared in sterile DMEM-F12. The concentrated drug stock was sterile filtered and added to the respective culture media (19.6 ml CM and 0.4 ml dextran sulfate stock solution). The Control was made using 19.6 ml CM and 0.4 ml of DMEM-F12. Dextran sulfate and CM were added to the respective flasks (5 ml each) to reach the 0.01 mg/ml concentration of dextran sulfate in each dish with a total of 10 ml CM each.
CM was aspirated into a clean and labelled 15 ml Falcon tube. The flasks (without culture medium) were placed into the −80° C. freezer for 30 minutes. The CM in the Falcon tubes were spun at 3000×g for 5 minutes. Supernatant was removed and the small pellet was re-suspended in 2.5 ml Trizol:Water (4:1) solution at room temperature (RT, ˜22° C.).
The frozen flasks were removed one-by one from the freezer and the Trizol-Water from the appropriate tubes was moved to the flask. Flasks were left at RT for 5 minutes before the content was aspirated back into the 15 ml Falcon tube (after washing the bottom of the flask with the solution thoroughly). The flasks were inspected under the microscope to ensure full removal of cells. The collected lysates in the 15 ml Falcon tubes were placed into the −80° C. freezer.
Two aliquots of 1 ml lysate was removed from each sample and 200 μl of chloroform was added to each (0.2 ml of chloroform per 1 ml of TRIzol Reagent used during the cell lysis step) and the tube was shaken vigorously. Samples were stored at RT for 2-3 minutes and subsequently centrifuged at 12,000×g for 15 minutes at 4° C.
The RNA was precipitated from the aqueous phase by adding an equal amount of 100% ethanol. The precipitated RNA was fixed onto a Spin Cartridge, washed twice and dried. The RNA was eluted in 50 μl warm RNase-Free Water. The amount and quality of the purified RNA was measured by Nanodrop. The RNA was stored at −80° C. before transfer to Source Bioscience for Array analysis.
The expression data were downloaded into separate files for each cell line. […]

dextran sulfate
effect on cell adhesion and movement in Schwann cells (0.01 mg/ml, 48 hours): promoted cell detachment and movement
differentially expressed genes (D0 control vs D2 dextran sulfate treated, 0.01 mg/ml, 48 hours): 1244 genes
differentially expressed genes (D2 control vs D2 dextran sulfate treated, 0.01 mg/ml, 48 hours): 700 genes
increase in decorin expression, fold change (Schwann cells, 0.01 mg/ml, 48 hours): 1.242
genes: abolished nutrient effect (no effect): 21
genes: total (no effect): 21
genes: abolished nutrient effect (significant downregulation): 1
genes: enhanced response to nutrients (significant downregulation): 122
genes: new effect induced by dextran sulfate (significant downregulation): 352
genes: not different from control (significant downregulation): 42
genes: total (significant downregulation): 517
genes: abolished nutrient effect (significant upregulation): 13
genes: enhanced response to nutrients (significant upregulation): 441
genes: new effect induced by dextran sulfate (significant upregulation): 74
genes: not different from control (significant upregulation): 373
genes: total (significant upregulation): 901
genes: abolished nutrient effect (total): 35
genes: enhanced response to nutrients (total): 563
genes: new effect induced by dextran sulfate (total): 426
genes: not different from control (total): 415
genes: total (total): 1439

Source: patent publication US11291684B2, “Treatment of glaucoma” (TX MEDIC AB, priority 2017, dated 2022)
